According to article PMC8959600 (eLife, 2022):
≈ marks a conversion by molar mass, not a printed value.

Experiments:
S. flexneri 2457T [1] = assay: microbe, parasite or virus in culture; type: cell-based, Shigella flexneri; conditions: Shigella flexneri, 2457T
Description: Bacterial inoculum without drug was used as positive control. The bacteria inoculum (1 × 10^5 CFU/mL) for the assay was prepared by diluting a log phase incubated at 37 °C for 3–4 hr. Mueller Hinton agar plates were prepared containing 4xMIC and 10xMIC and inoculated with different concentrations of bacteria (1 × 10^9, 1 × 10^8, and 1 × 10^7 CFU/mL). Plates were prepared in duplicate and incubated overnight at 37 °C. The frequency of spontaneous resistant mutants was calculated by using the formula: FoR = resistant CFUs/inoculum CFUs. The mean of the two plates was reported.

Shigella flexneri 2457T = assay: Resazurin growth inhibition, dose response (IC50/IC90) in Müller Hinton medium; type: cell-based; conditions: ATCC700930
Description: We developed a high-throughput screening (HTS) method to identify compounds that could inhibit the growth of Shigella flexneri 2457T in Müller Hinton medium (Sigma Aldrich, UK). We adapted a resazurin reduction protocol from Franzblau et al. as surrogate readout for bacterial viability because it provided a stable signal, a low interference level, and was cost effective ([Franzblau et al., 1998]). Prior to the day of experimentation, one colony was used to inoculate 50 mL Mueller Hinton medium, and the culture was incubated overnight at 37 °C. The next day, 500 μL of the bacterial culture were inoculated into 50 mL fresh Mueller Hinton medium and bacterial growth was measured periodically at 600 nm. When the culture reached OD = 0.4–0.6, the inoculum was diluted to 1 × 10^6 CFU/mL; this bacterial suspension was added to compound pre-dispensed plates for screening.
The assay was performed in 1536-well polystyrene assay plates (HiBase, μClear, Greiner Bio‐One) and used to screen ~1.7 million compounds from (a) GSK naïve chemical diversity, (b) GSK antibacterial programs, and (c) marketed antimicrobial agents. All commercially available chemicals were purchased from either Sigma Aldrich, UK, AK Scientific, or Fischer Chemicals. The GSK compound screening set was sub-selected from the 8 million compound GSK collection using the principles described by Harper and co-workers ([Harper et al., 2004]). The process to generate the structural filters to remove compounds bearing undesirable/reactive chemotypes and/or non-developable physicochemical properties has been described previously by [Chakravorty et al., 2018]. […]. The set of marketed antibacterial agents included most commercial antimicrobial agents.
For screening, plates were prepared by dispensing 50 nl of compound from master plates at 1 mM in each well using a LabCyte Echo system. The final assay volume was 5 μl and the final compound concentration was 10 µM. The 11th and 12th columns were growth controls containing 50 nL of DMSO. The 34th and 35th columns contained 50 nL of Moxifloxacin at 20 μM as negative growth controls. Five µl of bacterial inoculum was dispensed into compound pre-dispensed plates using a Multidrop Combi dispenser (Thermo Scientific). Plates were agitated for 10 s to ensure mixing and incubated at 37 °C overnight (16–17 hr). Following overnight culture, 2 µl resazurin solution (Resazurin tablets for milk testing, BDH) was added to each well and incubated at room temperature in the dark for 3 hr. Fluorescence intensity was measured using an Envision plate reader (PerkinElmer). […] Data were analysed using Base software and statistical cut-off analysis was used for ‘hit’ selection following a standard GSK protocol. To calculate the statistical cut-off, percentage growth inhibition was calculated per well according to the plate controls, these values were aggregated to calculate the robust mean and standard deviation (SD) of the distribution. The robust mean was calculated starting from the median and the MAD of the distribution with an iterative process that aimed to remove outliers. Once the mean and SD were calculated, all compounds above mean + 3 SD were selected as primary hits.
After the initial screen, we generated fresh samples of the primary compound hits and tested them in duplicate against S. flexneri 2457T at 10 μM to confirm activity. The confirmed hit list was narrowed by applying the following filters: a 30% cut-off value, absence of undesirable structural features (e.g. electrophiles, peroxides, and Michael acceptors) and reduced physicochemical risk (maximum five aromatic rings and PFI <8)([Leeson and Young, 2015]). […].

S. flexneri 2457T [2] = type: in vivo; conditions: mice, 40 mg/kg PO, 24 hr post infection, limit of quantification 80
S. flexneri EG478 = assay: Solid medium test at 10 µM and dose-response MIC against MDR clinical isolate; type: cell-based, Shigella flexneri; conditions: for bactericidal activity: MDR clinical isolate S. flexneri EG478; for MIC range: range over S. flexneri EG478 and S. sonnei 02-1181
Description: (§1) The confirmed hit list was narrowed by applying the following filters: a 30% cut-off value, absence of undesirable structural features (e.g. electrophiles, peroxides, and Michael acceptors) and reduced physicochemical risk (maximum five aromatic rings and PFI <8)([Leeson and Young, 2015]). […] Briefly, the selected bacteria were cultured on the Luria-Bertani agar overnight at 37 °C (Campylobacter isolates were grown in 2.5% Laked Horse Blood cation-adjusted Mueller Hinton medium (CAMHB, Sigma Aldrich) and incubated in microaerophilic conditions (10% CO2, 5% O2 and 85% N2) at 42 °C); colonies were added to sterile PBS to form 0.5 McFarland solutions. All chemical testing was performed at an initial concentration of 10 μM. Bacterial suspensions were evenly spread on Mueller-Hinton agar by sterile cotton swabs (Medical Wire – MWE). […] Plates were incubated overnight at 37 °C. The activity of the chemical was recorded as being active (yes) or non-active (no) for each of the tested chemicals.
(§2) MICs were evaluated using the micro dilution assay in Müller Hinton broth using 1 mM chemical stock solutions, and a final concentration of 5 × 10^5 CFU/mL bacteria. Twofold serial dilutions were prepared in 96-well plates at concentration ranging from 1 μM to 7.8 nM. 100 μL bacteria were added and incubated at 37 °C overnight; 10 μl of each solution was dropped onto Luria-Bertani agar and incubated overnight at 37 °C for the detection of bacterial growth. Results were interpreted as minimal concentration necessary to inhibit growth.

S. sonnei 02–1181 = assay: as above; type: cell-based, Shigella sonnei
Description: as §1, §2

S. flexneri 2457T [3] = assay: Gnotobiotic piglet Shigella infection model, efficacy; type: in vivo; conditions: piglets
[4] = Intestinal distribution by MALDI imaging in mice; type: in vivo
Description: One animal was euthanised at 0.25, 0.5, 1, and 4 hr respectively and 2.5–3 cm sections of the intestine (duodenum, jejunum, ileum, caecum, and colon) were collected and frozen at –80 °C. For quantitative LCMS analysis of intestine homogenate, samples were thawed at ambient temperature, mixed with water (1:1) and homogenised by turrax (10 sec). Subsequently, 20 µL of homogenate were mixed with 200 µl of ACN: MeOH (80:20) and filtered using 0.2 µm filter plate (Whatman). LCMS analysis was performed as described in previous section. For MALDI imaging, 50 mm of the central part of each intestinal section were cut and mounted in a sample disc on dry ice with a solution of 1% methylcellulose (Sigma Aldrich, UK). Next, tissue sections of 12 µm (sagital sections) were obtained using a cryostat (Leica CM3600; Leica Microsystems Inc, Wetzlar, Germany) at –20 °C and collected in conductive-coated slides for MALDI Imaging (Bruker Daltonic). After the ‘MALDI’ section was obtained a consecutive section for histology was taken. Prior to matrix coating, samples for MALDI were optical scanned in a PathScanner. The matrix deposition was conducted in a sprayer ImagePrep System (Bruker Daltonic) which uses vibrational vaporisation technology. As matrix solution α-CHCA (α-Cyano-4-hydroxycinnamic acid (Sigma Aldrich) dissolved in 70:30 methanol/water (v/v) containing 0.2% TFA at 7 mg/mL was used. MALDI MSI data were obtained using a Bruker UltrafleXtream MALDI TOF/TOF (Bruker Daltonic, Germany)).
Both compounds were analysed in positive mode using a LIFT method. For Tebipenem, parent compound was 384.32 and the detection mass window between m/z 0–400. 298.164 were the most intensive fragment. […] We used a laser shut at 85% power with a 50 μm step size, 100 times at raster spot in random wak mode. FlexImaging 4.1(bruker Daltoninc, Germany) were used for the data visualisation. […]
MALDI Imaging is not a quantitative technique, therefore, the colour scale of images is relative to the maximum intensity (100 corresponds with the maximal signa in each slide). […]

In the case of CC1(C)S[C@@H]2[C@H](NC(=O)[C@H](N)c3ccccc3)C(=O)N2[C@H]1C(=O)O [Ampicilin], the MIC (S. flexneri 2457T [1]) is reported as 7.5 µM (≈ 2.62 µg/mL).
Compound CC[C@H]1OC(=O)[C@H](C)[C@@H](O[C@H]2C[C@@](C)(OC)[C@@H](O)[C@H](C)O2)[C@H](C)[C@@H](O[C@@H]2O[C@H](C)C[C@H](N(C)C)[C@H]2O)[C@](C)(O)C[C@@H](C)CN(C)[C@H](C)[C@@H](O)[C@]1(C)O [Azithromycin] has an IC90 (Shigella flexneri 2457T) of 7.49 µg/mL (≈ 10 µM).
In the case of CO/N=C(\C(=O)N[C@@H]1C(=O)N2C(C(=O)O)=C(CSc3nc(=O)c(=O)[nH]n3C)CS[C@H]12)c1csc(N)n1 [Ceftriaxone], the MIC (S. flexneri 2457T [1]) is reported as 0.2 µM (≈ 0.111 µg/mL) and the IC90 (Shigella flexneri 2457T) is reported as 0.067 µg/mL (≈ 0.121 µM).
With O=C(O)c1cn(C2CC2)c2cc(N3CCNCC3)c(F)cc2c1=O [Ciprofloxacin] the MIC (S. flexneri 2457T [1]) was 0.06 µM (≈ 0.0199 µg/mL), the IC90 (Shigella flexneri 2457T) was 0.02 µg/mL (≈ 0.0604 µM) and the “S. flexneri CFUs in gastrointestinal tissue” value (S. flexneri 2457T [2]) was under 80 CFU.
In the case of C[C@@H](O)[C@H]1C(=O)N2C(C(=O)O)=C(S[C@@H]3CN[C@H](C(=O)Nc4cccc(C(=O)O)c4)C3)[C@H](C)[C@H]12 [Ertapenem], the bactericidal activity (S. flexneri EG478) is reported as “greatest bactericidal activity”, the MIC range (S. flexneri EG478) is reported as 0.04 to 0.15 µg/mL and the bactericidal activity (S. sonnei 02–1181) is reported as “greatest bactericidal activity”.
C[C@@H](O)[C@H]1C(=O)N2C(C(=O)O)=C([C@H]3CCCO3)S[C@H]12 [Faropenem] showed an MIC range (S. flexneri EG478) of 2.5 to 6.25 µg/mL.
With CC1(C)S[C@@H]2[C@H](/N=C/N3CCCCCC3)C(=O)N2[C@H]1C(=O)O [Mecillinam] the MIC (S. flexneri 2457T [1]) was 0.2 µM (≈ 0.0651 µg/mL) and the IC90 (Shigella flexneri 2457T) was 0.058 µg/mL (≈ 0.178 µM).
In the case of C[C@@H](O)[C@H]1C(=O)N2C(C(=O)O)=C(S[C@@H]3CN[C@H](C(=O)N(C)C)C3)[C@H](C)[C@H]12 [Meropenem], the bactericidal activity (S. flexneri EG478) is reported as “greatest bactericidal activity”, the MIC range (S. flexneri EG478) is reported as 0.15 µg/mL (≈ 0.391 µM) and the bactericidal activity (S. sonnei 02–1181) is reported as “greatest bactericidal activity”.
Work on COc1c(N2C[C@@H]3CCCN[C@@H]3C2)c(F)cc2c(=O)c(C(=O)O)cn(C3CC3)c12 [Moxifloxacin] yielded an MIC (S. flexneri 2457T [1]) of 0.2 µM (≈ 0.0803 µg/mL).
In the case of CO[C@H]1/C=C/O[C@@]2(C)Oc3c(C)c(O)c4c(O)c(c(/C=N/N5CCN(C)CC5)c(O)c4c3C2=O)NC(=O)/C(C)=C\C=C\[C@H](C)[C@H](O)[C@@H](C)[C@@H](O)[C@@H](C)[C@H](OC(C)=O)[C@@H]1C [Rifampicin], the MIC (S. flexneri 2457T [1]) is reported as 3.7 µM (≈ 3.04 µg/mL).
For C[C@@H](O)[C@H]1C(=O)N2C(C(=O)OCOC(=O)C(C)(C)C)=C(SC3CN(C4=NCCS4)C3)[C@H](C)[C@H]12 [Tebipenem pivoxil], the “histopathology of the large intestine vs placebo” value (S. flexneri 2457T [3]; day six post infection) was “marked reduction in intestinal lesions and inflammation”, the “CFU/g Shigella in stool” value (S. flexneri 2457T [3]; single dose given 24 hr after infection, from 1 × 10^7, within 24 hr) was “zero” and the “MALDI detection in the intestinal lumen” value ([4]; 60 min after oral pro-drug) was “not detectable in the lumen”. For the same compound, the “MALDI detection within enterocytes” value ([4]; after oral pro-drug) was “not detected within enterocytes”.
